Experimental data published in the NIST ThermoML archive (doi:10.1016/j.jct.2015.06.024).

Assay: mn = molality of the nth substance listed, in mol/kg
Conditions: 84.5 kPa, Liquid; for speed of sound: Frequency=3 MHz, Sing-around technique in a fixed-path interferometer; for mass density: Vibrating tube method

O=C(O)[C@@H]1CCCN1 [L-proline] + O
Conditions | mass density, 288.15 K [kg/m3] | mass density, 293.15 K [kg/m3] | mass density, 298.15 K [kg/m3] | mass density, 303.15 K [kg/m3] | mass density, 308.15 K [kg/m3] | speed of sound, 288.15 K [m/s] | speed of sound, 293.15 K [m/s] | speed of sound, 298.15 K [m/s] | speed of sound, 303.15 K [m/s] | speed of sound, 308.15 K [m/s]
m1 = 0.04355 | 1000.55 | 999.631 | 998.453 | 997.041 | 995.413 | 1470.3 | 1486.1 | 1500.1 | 1512.3 | 1522.8
m1 = 0.05237 | 1000.84 | 999.916 | 998.737 | 997.322 | 995.693 | 1471 | 1486.8 | 1500.8 | 1512.9 | 1523.4
m1 = 0.06122 | 1001.13 | 1000.21 | 999.025 | 997.607 | 995.975 | 1471.7 | 1487.6 | 1501.5 | 1513.6 | 1524
m1 = 0.06959 | 1001.41 | 1000.48 | 999.295 | 997.877 | 996.241 | 1472.5 | 1488.2 | 1502.1 | 1514.2 | 1524.6
m1 = 0.07882 | 1001.71 | 1000.78 | 999.588 | 998.167 | 996.529 | 1473.2 | 1488.9 | 1502.8 | 1514.8 | 1525.2
m1 = 0.08768 | 1002 | 1001.07 | 999.877 | 998.452 | 996.813 | 1474 | 1489.6 | 1503.5 | 1515.4 | 1525.8
m1 = 0.09661 | 1002.3 | 1001.36 | 1000.16 | 998.734 | 997.093 | 1474.7 | 1490.3 | 1504.1 | 1516.1 | 1526.4
m1 = 0.1056 | 1002.59 | 1001.65 | 1000.45 | 999.02 | 997.377 | 1475.4 | 1491 | 1504.7 | 1516.7 | 1526.9
m1 = 0.1234 | 1003.17 | 1002.23 | 1001.02 | 999.585 | 997.937 | 1476.8 | 1492.3 | 1506 | 1517.9 | 1528.1
m1 = 0.1414 | 1003.76 | 1002.8 | 1001.59 | 1000.15 | 998.498 | 1478.3 | 1493.7 | 1507.3 | 1519.1 | 1529.3
m1 = 0.1591 | 1004.34 | 1003.37 | 1002.15 | 1000.71 | 999.051 | 1479.8 | 1495.2 | 1508.7 | 1520.5 | 1530.6
m1 = 0.1775 | 1004.93 | 1003.96 | 1002.74 | 1001.28 | 999.622 | 1481.3 | 1496.6 | 1510.1 | 1521.8 | 1531.8
m1 = 0.1955 | 1005.51 | 1004.53 | 1003.3 | 1001.85 | 1000.18 | 1482.8 | 1498 | 1511.4 | 1523 | 1533
m1 = 0.2134 | 1006.09 | 1005.1 | 1003.87 | 1002.4 | 1000.73 | 1484.2 | 1499.4 | 1512.6 | 1524.2 | 1534.1

CCCCO [butan-1-ol] + O
Conditions | mass density, 288.15 K [kg/m3] | mass density, 293.15 K [kg/m3] | mass density, 298.15 K [kg/m3] | mass density, 303.15 K [kg/m3] | mass density, 308.15 K [kg/m3] | speed of sound, 288.15 K [m/s] | speed of sound, 293.15 K [m/s] | speed of sound, 298.15 K [m/s] | speed of sound, 303.15 K [m/s] | speed of sound, 308.15 K [m/s]
m1 = 0.01342 | 998.939 | 998.039 | 996.876 | 995.476 | 993.859 | 1467.6 | 1483.6 | 1497.7 | 1510 | 1520.6
m1 = 0.02701 | 998.774 | 997.873 | 996.708 | 995.306 | 993.686 | 1468.7 | 1484.7 | 1498.7 | 1510.9 | 1521.3
m1 = 0.04053 | 998.614 | 997.712 | 996.547 | 995.143 | 993.508 | 1469.9 | 1485.7 | 1499.6 | 1511.7 | 1522.2
m1 = 0.05431 | 998.455 | 997.552 | 996.384 | 994.976 | 993.352 | 1471 | 1486.7 | 1500.5 | 1512.5 | 1522.9
m1 = 0.06771 | 998.296 | 997.389 | 996.218 | 994.809 | 993.182 | 1472.1 | 1487.7 | 1501.4 | 1513.3 | 1523.6
m1 = 0.08132 | 998.137 | 997.231 | 996.058 | 994.647 | 992.992 | 1473.1 | 1488.6 | 1502.3 | 1514.1 | 1524.4
m1 = 0.1063 | 997.846 | 996.934 | 995.757 | 994.341 | 992.707 | 1475.1 | 1490.5 | 1504 | 1515.7 | 1525.7
m1 = 0.1358 | 997.518 | 996.602 | 995.417 | 993.998 | 992.357 | 1477.4 | 1492.5 | 1505.8 | 1517.4 | 1527.2
